According to patent US20260347373A1, “HETEROCYCLIC COMPOUNDS, COMPOSITIONS THEREOF, AND METHODS OF TREATMENT THEREWITH” (BeOne Medicines I GmbH, priority 2023, published 2026):
Like-named read-outs stand apart in the source and are kept apart here.

How the values were obtained:
WT KRAS = WT KRAS (Homo sapiens, UniProt P01116); experiment: KRAS WT Probe Displacement Assay (TR-FRET, GDP-loaded); assay type: binding
Description: (§1) The synthetic routes of probe 1 and 2, which have been disclosed in PCT/CN2022/070676, are hereby incorporated herein.

KRAS G12D = KRAS G12D (Homo sapiens, UniProt P01116, G12D); experiment: KRAS G12D Probe Displacement Assay (TR-FRET, GDP-loaded); assay type: binding
Sequence of KRAS G12D (P01116 1-188 isoform P01116-2 G12D): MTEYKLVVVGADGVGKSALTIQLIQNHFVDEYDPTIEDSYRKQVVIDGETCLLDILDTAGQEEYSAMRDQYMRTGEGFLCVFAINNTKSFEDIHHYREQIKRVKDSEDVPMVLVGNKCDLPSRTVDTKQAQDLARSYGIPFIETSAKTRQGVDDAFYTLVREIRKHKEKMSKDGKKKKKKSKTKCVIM
Description: as §1

[1] = KRAS WT, read-out: KRAS^WT Probe Displacement Assay IC50
[2] = KRAS G12D, read-out: KRAS^G12D Probe Displacement Assay IC50
[3] = KRAS^WT Probe Displacement Assay IC50, KRAS WT
[4] = KRAS^G12D Probe Displacement Assay IC50, KRAS G12D

Sequence of WT KRAS (P01116 1-188 isoform P01116-2): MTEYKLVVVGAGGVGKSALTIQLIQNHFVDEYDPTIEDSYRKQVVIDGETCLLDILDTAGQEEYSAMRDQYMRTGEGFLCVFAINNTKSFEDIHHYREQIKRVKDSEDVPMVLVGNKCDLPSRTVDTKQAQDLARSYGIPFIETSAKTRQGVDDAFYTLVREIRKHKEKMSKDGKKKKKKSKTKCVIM

Row | Structure (SMILES) | IC50 (WT KRAS; [1]) [nM] | IC50 (KRAS G12D; [2]) [nM] | IC50 (WT KRAS; [3]) [nM] | IC50 (KRAS G12D; [4]) [nM]
1 | C=C1CN2C[C@H](F)C[C@@]2(COc2nc3c4c(nc(-c5cc(N)cc(C)c5C(F)(F)F)c(F)c4n2)OCC[C@@H]2[C@@H]4CC[C@H](CN32)N4)C1 [Example 208, 3-((6aR,7S,10R)-1-fluoro-13-(((2R,7aR)-2-fluoro-6-methylenetetrahydro-1H-pyrrolizin-7a(5H)-yl)methoxy)-5,6,6a,7,8,9,10,11-octahydro-4-oxa-3,11a,12,14,15-pentaaza-7,10-methanocyclohepta[4,5]cycloocta[1,2,3-de]naphthalen-2-yl)-5-methyl-4-(trifluoromethyl)aniline] | 0.3 to 3 | < 0.3 |  | 
2 | Cc1cc(N)cc(-c2nc3c4c(nc(OCC5(CN6CCC6)CC5)nc4c2F)N2C[C@H]4CC[C@H](N4)[C@H]2CCO3)c1C(F)(F)F [Example 78, 3-((6aR,7S,10R)-13-((1-(azetidin-1-ylmethyl)cyclopropyl)methoxy)-1-fluoro-5,6,6a,7,8,9,10,11-octahydro-4-oxa-3, 11a,12,14,15-pentaaza-7,10-methanocyclohepta [4,5]cycloocta [1,2,3-de]naphthalen-2-yl)-5-methyl-4-(trifluoromethyl)aniline] | 3 to 1000 | 0.3 to 3 |  | 
3 | CO[C@@H]1CN2C[C@H](F)C[C@]2(COc2nc3c4c(nc(-c5cc(N)cc(Cl)c5C(F)(F)F)c(F)c4n2)OCC[C@@H]2[C@@H]4CC[C@H](CN32)N4)C1 [Example 217, 3-chloro-5-((6aR,7S,10R)-1-fluoro-13-(((2R,6S,7aS)-2-fluoro-6-methoxytetahydro-1H-pyrrolizin-7a(5H)-yl)methoxy)-5,6,6a,7,8,9,10,11-octahydro-4-oxa-3,11a,12,14,15-pentaaza-7,10-methanocyclohepta[4,5]cycloocta[1,2,3-de]naphthalen-2-yl)-4-(trifluoromethyl)aniline] | 3 to 1000 | < 0.3 |  | 
4 | Cc1cc(N)cc(-c2nc3c4c(nc(OCC5(C6CCCN6C)CC5)nc4c2F)N2C[C@H]4CC[C@H](N4)[C@H]2CCO3)c1C(F)(F)F (mixture of isomers) [Example 63, 3-((6aR,7S,10R)-1-fluoro-13-((1-(1-methylpyrrolidin-2-yl)cyclopropyl)methoxy)-5,6,6a,7,8,9,10,11-octahydro-4-oxa-3,11a,12,14,15-pentaaza-7,10-methanocyclohepta[4,5]cycloocta[1,2,3-de]naphthalen-2-yl)-5-methyl-4-(trifluoromethyl)aniline] | 3 to 1000 | < 0.3 |  | 
5 | Cc1cc(N)cc(-c2nc3c4c(nc(OCC5(C)CC(F)CN(C6CCOCC6)C5)nc4c2F)N2C[C@H]4CC[C@H](N4)[C@H]2CCO3)c1C(F)(F)F (single isomer, unassigned) [Example 235] | 3 to 1000 | 0.3 to 3 |  | 
6 | Cc1cc(N)cc(-c2nc3c4c(nc(OC[C@]56C[C@H](F)CN5C[C@H](F)C6)nc4c2F)N2C[C@H]4CC[C@H](N4)[C@H]2CCO3)c1C(F)(F)F [Example 35] | 3 to 1000 | 0.3 to 3 |  | 
7 | [2H]C([2H])([2H])N1CCC(C(F)F)C(C)(C([2H])([2H])Oc2nc3c4c(nc(-c5cc(N)cc(Cl)c5C(F)(F)F)c(F)c4n2)OCC[C@@H]2[C@@H]4CC[C@H](CN32)N4)C1 (single isomer, unassigned) [Example 246] | 3 to 1000 | 0.3 to 3 |  | 
8 | Cc1cc(N)cc(-c2nc3c4c(nc(OCC5(CN(C)C)CC5(F)F)nc4c2F)N2C[C@H]4CC[C@H](N4)[C@H]2CCO3)c1C(F)(F)F (some centres unmarked) [Example 16] | 3 to 1000 | < 0.3 |  | 
9 | Cc1cc(N)cc(-c2nc3c4c(nc(OCC5(CN6CCC[C@@H]6C)CC5)nc4c2F)N2C[C@H]4CC[C@H](N4)[C@H]2CCO3)c1C(F)(F)F [Example 123, 3-((6aR,7S,10R)-1-fluoro-13-((1-(((S)-2-methylpyrrolidin-1-yl)methyl)cyclopropyl)methoxy)-5,6,6a, 7,8,9,10,11-octahydro-4-oxa-3,11a,12,14,15-pentaaza-7,10-methanocyclohepta [4,5]cycloocta [1,2,3-de]naphthalen-2-yl)-5-methyl-4-(trifluoromethyl)aniline] | 3 to 1000 | < 0.3 |  | 
10 | Cc1cc(N)cc(-c2nc3c4c(nc(O[C@@H](C)[C@@H]5[C@H]6C[C@H]6CN5C)nc4c2F)N2C[C@H]4CC[C@H](N4)[C@H]2CCO3)c1C(F)(F)F [Example 223, 3-((6aR,7S,10R)-1-fluoro-13-((S)-1-((1S,2S,5R)-3-methyl-3-azabicyclo[3.1.0]hexan-2-yl)ethoxy)-5,6,6a,7,8,9,10,11-octahydro-4-oxa-3,11a,12,14,15-pentaaza-7,10-methanocyclohepta[4,5]cycloocta[1,2,3-de]naphthalen-2-yl)-5-methyl-4-(trifluoromethyl)aniline] | 3 to 1000 | < 0.3 |  | 
11 | Cc1cc(N)cc(-c2nc3c4c(nc(OCC5(C)CN(C)CC/C5=C\F)nc4c2F)N2C[C@H]4CC[C@H](N4)[C@H]2CCO3)c1C(F)(F)F (single isomer, unassigned) [Example 236] | 3 to 1000 | < 0.3 |  | 
12 | CO[C@H]1CCN(CC2(COc3nc4c5c(nc(-c6cc(N)cc(C)c6C(F)(F)F)c(F)c5n3)OCC[C@@H]3[C@@H]5CC[C@H](CN43)N5)CC2)C1 [Example 88, 3-((6aR,7S,10R)-1-fluoro-13-((1-(((S)-3-methoxypyrrolidin-1-yl)methyl)cyclopropyl)methoxy)-5,6,6a,7,8,9,10,11-octahydro-4-oxa-3,11a,12,14,15-pentaaza-7,10-methanocyclohepta [4,5]cycloocta [1,2,3-de]naphthalen-2-yl)-5-methyl-4-(trifluoromethyl) aniline] |  |  | 3 to 1000 | < 0.3
13 | Cc1cc(N)cc(-c2nc3c4c(nc(OCC5(CN6CCC7(C6)CC7(F)F)CC5)nc4c2F)N2C[C@H]4CC[C@H](N4)[C@H]2CCO3)c1C(F)(F)F (mixture of isomers) [Example 90, 3-((6aR,7S,10R)-13-((1-((1,1-difluoro-5-azaspiro [2.4]heptan-5-yl)methyl)cyclopropyl)methoxy)-1-fluoro-5,6,6a,7,8,9,10,11-octahydro-4-oxa-3, 11a,12,14,15-pentaaza[7,10]methanocyclohepta[4,5]cycloocta[1,2,3-de]naphthalen-2-yl)-5-methyl-4-(trifluoromethyl)aniline] | 0.3 to 3 | < 0.3 |  | 
14 | Cc1cc(N)cc(-c2nc3c4c(nc(OCC5(CN6CC[C@@H](F)C6)CC5)nc4c2F)N2C[C@H]4CC[C@H](N4)[C@H]2CCO3)c1C(F)(F)F [Example 86, 3-((6aR,7S,10R)-1-fluoro-13-((1-(((R)-3-fluoropyrrolidin-1-yl)methyl)cyclopropyl)methoxy)-5,6,6a,7,8,9,10,11-octahydro-4-oxa-3,11a,12,14,15-pentaaza-7,10-methanocyclohepta [4,5]cycloocta [1,2,3-de]naphthalen-2-yl)-5-methyl-4-(trifluoromethyl) aniline] |  |  | 3 to 1000 | < 0.3
15 | Cc1cc(N)cc(-c2nc3c4c(nc(OCC5(CN6CC7(CCOCC7)C6)CC5)nc4c2F)N2C[C@H]4CC[C@H](N4)[C@H]2CCO3)c1C(F)(F)F [Example 85, 3-((6aR,7S,10R)-13-((1-((7-oxa-2-azaspiro[3.5]nonan-2-yl)methyl)cyclopropyl)methoxy)-1-fluoro-5,6,6a, 7,8,9,10,11-octahydro-4-oxa-3,11a,12,14,15-pentaaza[7,10]methanocyclohepta [4,5]cycloocta [1,2,3-de]naphthalen-2-yl)-5-methyl-4-(trifluoromethyl)aniline] | 0.3 to 3 | < 0.3 |  | 
16 | [2H]C([2H])([2H])N1CC[C@H](OC)[C@H]1[C@H](C)Oc1nc2c3c(nc(-c4cc(N)cc(C)c4C(F)(F)F)c(F)c3n1)OCC[C@@H]1[C@@H]3CC[C@H](CN21)N3 [Example 142, 3-((6aR,7S,10R)-1-fluoro-13-((S)-1-((2R,3S)-3-methoxy-1-(methyl-d3)pyrrolidin-2-yl)ethoxy)-5,6,6a,7,8,9,10,11-octahydro-4-oxa-3,11a,12,14,15-pentaaza-7,10-methano-cyclohepta[4,5]cycloocta [1,2,3-de]naphthalen-2-yl)-5-methyl-4-(trifluoromethyl)aniline] | 3 to 1000 | < 0.3 |  | 
17 | [2H]C([2H])([2H])N1C[C@H](OC)C[C@H]1[C@H](C)Oc1nc2c3c(nc(-c4cc(N)cc(C)c4C(F)(F)F)c(F)c3n1)OCC[C@@H]1[C@@H]3CC[C@H](CN21)N3 [Example 219, 3-((6aR,7S,10R)-1-fluoro-13-((S)-1-((2S,4R)-4-methoxy-1-(methyl-d3)pyrrolidin-2-yl)ethoxy)-5,6,6a,7,8,9,10,11-octahydro-4-oxa-3,11a,12,14,15-pentaaza-7,10-methanocyclohepta[4,5]cycloocta[1,2,3-de]naphthalen-2-yl)-5-methyl-4-(trifluoromethyl)aniline] | 3 to 1000 | < 0.3 |  | 
18 | COC1CN(C)CC(C)(COc2nc3c4c(nc(-c5cc(N)cc(C)c5C(F)(F)F)c(F)c4n2)OCC[C@@H]2[C@@H]4CC[C@H](CN32)N4)C1 (stereo partly drawn) [Example 126, 3-((6aR,7S,10R)-1-fluoro-13-((5-methoxy-1,3-dimethylpiperidin-3-yl)methoxy)-5,6,6a,7,8,9,10,11-octahydro-4-oxa-3,11a,12,14,15-pentaaza-7,10-methanocyclohepta[4,5]cycloocta[1,2,3-de]naphthalen-2-yl)-5-methyl-4-(trifluoromethyl)aniline] | 3 to 1000 | 0.3 to 3 |  | 
19 | Cc1cc(N)cc(-c2nc3c4c(nc(OCC5(CN6CC7CC(C6)O7)CC5)nc4c2F)N2C[C@H]4CC[C@H](N4)[C@H]2CCO3)c1C(F)(F)F [Example 105, 3-((6aR,7S,10R)-13-((1-((6-oxa-3-azabicyclo [3.1.1]heptan-3-yl)methyl)cyclopropyl)methoxy)-1-fluoro-5,6,6a,7,8,9,10,11-octahydro-4-oxa-3,11a,12,14,15-pentaaza-7,10-methanocyclohepta [4,5]cycloocta [1,2,3-de]naphthalen-2-yl)-5-methyl-4-(trifluoromethyl)aniline] | 0.3 to 3 | < 0.3 |  | 
